From publication PMC5640650, “NatD promotes lung cancer progression by preventing histone H4 serine phosphorylation to activate Slug expression” (Nature Communications, 2017)

How the values were obtained:
[1] = system: A549 cells; assay: Expression of EMT genes, A549 cells; type: cell-based, human; settings: vs Scr
Procedure: (§1) Cellular proteins were extracted by RIPA lysis buffer at high salt concentration (420 mM NaCl), and western blot analysis was performed in accordance with standard protocols. Scans of enhanced chemiluminescence (ECL) films showing uncropped blots are presented in Supplementary Fig. 10. […]
(§2) Total RNA from tissue samples and cultured cells was extracted using TRIzol reagent (Invitrogen). cDNAs were synthesized with a HiScript 1st Strand cDNA Synthesis Kit (Vazyme Biotech, China). Quantitative RT-PCR was performed using a FastStart Universal SYBR Green Master (Roche) according to the manufacturer’s instructions in a Rotor-Gene 6000 (Corbett Research) in a final volume of 20 μl. […]
Supplementary Figure 4. […] (a) Quantitative real-time PCR analysis of mRNA levels of NatD, CCND1, p21, p27, p57, p16, p18, p19, CHEK2, E2F1, CCND2, KRAS, PTEN, c-Myc, and PCNA in scrambled (Scr) and NatD knockdown (NatD-KD) H1299 cells normalized to GAPDH. […] (b) Quantitative real-time PCR analysis of mRNA levels of NatD and key EMT-related genes in Scr and NatD-KD A549 cells normalized to […]
GAPDH served as a loading control. […] (bottom) Cell migration and invasion expressed as a percentage of control. […]

[2] = system: CK2α; assay: CK2α mRNA and protein expression, H1299 cells; type: cell-based, human; settings: vs Scr
Procedure: as §1, §2
Supplementary Figure 8. […] (a) Quantitative real-time PCR analysis of NatD and CK2α mRNA levels in scrambled and NatD-KD H1299 cells normalized to GAPDH. […]

## NatD-KD2: Human NatD shRNA KD2: 5′-GGTTGAATGTCTCCATTGA-3′, lentiviral (shRNA lentiviral)
[1]
  expression of E-cadherin: increased the expression
  expression of Slug, N-cadherin, and Vimentin: decreased the expression
[2]
  levels of CK2α mRNA or protein: no increase
